Reference: patent US9580390B2, “Indazole compounds as kinase inhibitors and method of treating cancer with same” (University Health Network, priority 2011, dated 2017)
Where two headings read alike, the source gives them in different places.

Tests used:
[1] = system: ovarian cancer cells (PA-1); test: Cancer cell line growth inhibition (SRB assay); assay type: cell-based; conditions: read-out: Cancer Cell Line GI50 Range PA-1
human TTK = target: T1, human TTK (Homo sapiens, UniProt P33981); test: TTK inhibition assay (indirect ELISA); assay type: biochemical; conditions: read-out: TTK IC50 Range
T1 construct: amino terminal GST fusion of full length human TTK; purchased Invitrogen
T1 sequence (P33981 1-857): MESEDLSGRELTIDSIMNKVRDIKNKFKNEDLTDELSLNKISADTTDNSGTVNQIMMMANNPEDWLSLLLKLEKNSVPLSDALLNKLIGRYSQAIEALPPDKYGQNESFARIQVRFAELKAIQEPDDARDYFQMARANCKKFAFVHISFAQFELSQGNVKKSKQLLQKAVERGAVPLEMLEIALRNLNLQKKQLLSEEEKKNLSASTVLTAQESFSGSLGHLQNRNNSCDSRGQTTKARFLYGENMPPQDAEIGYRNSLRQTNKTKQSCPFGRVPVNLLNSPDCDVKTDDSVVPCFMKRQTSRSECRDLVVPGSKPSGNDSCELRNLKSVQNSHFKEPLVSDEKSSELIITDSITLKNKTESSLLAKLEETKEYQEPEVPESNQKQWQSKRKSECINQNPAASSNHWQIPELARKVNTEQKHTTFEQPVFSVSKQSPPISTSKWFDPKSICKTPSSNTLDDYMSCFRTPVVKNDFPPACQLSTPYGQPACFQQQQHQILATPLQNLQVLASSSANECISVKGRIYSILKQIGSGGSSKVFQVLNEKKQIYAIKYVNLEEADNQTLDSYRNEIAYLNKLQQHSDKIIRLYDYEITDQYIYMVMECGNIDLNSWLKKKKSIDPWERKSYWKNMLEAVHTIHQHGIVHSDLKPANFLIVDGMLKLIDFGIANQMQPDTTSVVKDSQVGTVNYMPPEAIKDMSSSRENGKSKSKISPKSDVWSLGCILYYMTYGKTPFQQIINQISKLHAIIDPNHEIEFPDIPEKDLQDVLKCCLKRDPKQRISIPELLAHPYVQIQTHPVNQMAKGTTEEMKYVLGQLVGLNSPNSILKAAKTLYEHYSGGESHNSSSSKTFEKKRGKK

[2] = system: colon cancer cells (HCT116); test: Cancer cell line growth inhibition (SRB assay); assay type: cell-based; conditions: Homo sapiens, HCT-116, read-out: Cancer Cell Line GI50 Range HCT116
[3] = PA-1 ovarian cancer cells, SRB assay
[4] = HCT116 colon cancer cells, SRB assay

Row | Structure (SMILES) | GI50 ([1]; Homo sapiens, PA-1) [nM] | IC50 (human TTK) [nM] | GI50 [2] [nM] | GI50 [1, 3] [nM] | GI50 [2, 4] [nM]
1 | O=C(N[C@@H](c1ccccn1)C1CC1)c1ccc2[nH]nc(-c3ccc(OC4CC5CCC(C4)N5C4COC4)cc3)c2c1 (stereo partly drawn) [Example A352, N-((R)-cyclopropyl(pyridin-2-yl)methyl)-3-(4-(((1R,3R,5S)-8-(oxetan-3-yl)-8-azabicyclo[3.2.1]octan-3-yl)oxy)phenyl)-1H-indazole-5-carboxamide] | 100 to 500 | < 100 | 100 to 500 |  | 
2 | CN1CCN(C(=O)c2cccc(-c3n[nH]c4ccc(NC(=O)C(c5ccsc5)N5CCCC5)cc34)c2)CC1 (stereo not drawn) [Example A96, N-(3-(3-(4-Methylpiperazine-1-carbonyl)phenyl)-1H-indazol-5-yl)-2-(pyrrolidin-1-yl)-2-(thiophen-3-yl)acetamide] |  | > 500 |  | > 500 | > 500
3 | O=C(NC(c1ccccc1)C(F)F)c1ccc2[nH]nc(-c3ccc(OC4CCN(C5COC5)CC4)cc3)c2c1 (stereo not drawn) [Example A226, N-(2,2-difluoro-1-phenylethyl)-3-(4-((1-(oxetan-3-yl)piperidin-4-yl)oxy)phenyl)-1H-indazole-5-carboxamide] | 100 to 500 | < 100 | 100 to 500 |  | 
4 | Cc1ccccc1CC1(NC(=O)c2ccc3[nH]nc(-c4ccc(OC5CCN(C)CC5)cc4)c3c2)CC1 [Example A127, N-(1-(2-methylbenzyl)cyclopropyl)-3-(4-((1-methylpiperidin-4-yl)oxy)phenyl)-1H-indazole-5-carboxamide] |  | < 100 |  | 100 to 500 | 100 to 500
5 | O=C(NC(c1ccccc1)C1CC1)c1ccc2[nH]nc(-c3ccc(N[C@H]4CC[C@H](O)CC4)cc3)c2c1 (stereo partly drawn) [Example A106, trans-N-(cyclopropyl(phenyl)methyl)-3-(4-(((1r,4r)-4-hydroxycyclohexyl)amino)phenyl)-1H-indazole-5-carboxamide] |  | < 100 |  | < 100 | < 100
6 | CCC(CC)(CNC(=O)c1ccc2[nH]nc(-c3ccc(OC4CCN(C5COC5)CC4)cc3)c2c1)N1CCOCC1 [Example A466, N-(2-ethyl-2-morpholinobutyl)-3-(4-((1-(oxetan-3-yl)piperidin-4-yl)oxy)phenyl)-1H-indazole-5-carboxamide] | < 100 | < 100 | 100 to 500 |  | 
7 | CC(C)CC(NC(=O)c1ccc2[nH]nc(-c3ccc(OC4CCN(C5COC5)CC4)cc3)c2c1)c1ccccn1 (stereo not drawn) [Example A291, N-(3-methyl-1-(pyridin-2-yl)butyl)-3-(4-((1-(oxetan-3-yl)piperidin-4-yl)oxy)phenyl)-1H-indazole-5-carboxamide] | < 100 | < 100 | < 100 |  | 
8 | O=C(NCC1(N2CCOCC2)CCCCC1)c1ccc2[nH]nc(-c3ccc(N4CC5CCC(C4)O5)cc3)c2c1 [Example A483, 3-(4-(8-oxa-3-azabicydo[3.2.1]octan-3-yl)phenyl)-N-((1-morpholinocyclohexyl)methyl)-1H-indazole-5-carboxamide] | 100 to 500 | < 100 | 100 to 500 |  | 
9 | CCC(CC)(CNC(=O)c1ccc2[nH]nc(-c3ccc(N4CCOCC4)cc3)c2c1)c1ccccc1 [Example A437, N-(2-ethyl-2-phenylbutyl)-3-(4-morpholinophenyl)-1H-indazole-5-carboxamide] | 100 to 500 | < 100 | 100 to 500 |  | 
10 | O=C(NCC1(N2CCOCC2)CCCCC1)c1ccc2[nH]nc(-c3ccc(N4CCC(O)CC4)cc3)c2c1 [Example A427, 3-(4-(4-hydroxypiperidin-1-yl)phenyl)-N-((1-morpholinocyclohexyl)methyl)-1H-indazole-5-carboxamide] |  | < 100 |  | < 100 | < 100
11 | O=C(CC1(c2ccccc2)COC1)Nc1ccc2[nH]nc(-c3ccc(OC4CCN(C5COC5)CC4)cc3)c2c1 [Example A462, N-(3-(4-((1-(oxetan-3-yl)piperidin-4-yl)oxy)phenyl)-1H-indazol-5-yl)-2-(3-phenyloxetan-3-yl)acetamide] | > 500 | 100 to 500 | > 500 |  | 
12 | O=CN1C2CCC1CC(Oc1ccc(-c3n[nH]c4ccc(C(=O)N[C@@H](c5ccccn5)C5CC5)cc34)cc1)C2 (stereo partly drawn) [Example A353, N-((R)-cyclopropyl(pyridin-2-yl)methyl)-3-(4-(((1R,3R,5S)-8-formyl-8-azabicyclo[3.2.1]octan-3-yl)oxy)phenyl)-1H-indazole-5-carboxamide] | < 100 | < 100 | < 100 |  | 
13 | COc1ccc(NC(=O)Nc2ccc3[nH]nc(-c4ccc(OC5CCN(C)CC5)cc4)c3c2)c(C)c1 [Example A81, 1-(4-methoxy-2-methylphenyl)-3-(3-(4-((1-methylpiperidin-4-yl)oxy)phenyl)-1H-indazol-5-yl)urea] |  | 100 to 500 |  | 100 to 500 | 100 to 500
14 | O=C(NCC1(c2cccs2)CCOCC1)c1ccc2[nH]nc(-c3ccc(N4CCOCC4)cc3)c2c1 [Example A436, 3-(4-morpholinophenyl)-N-((4-(thiophen-2-yl)tetrahydro-2H-pyran-4-yl)methyl)-1H-indazole-5-carboxamide] | 100 to 500 | < 100 | 100 to 500 |  | 
15 | O=C(N[C@H](c1ccccn1)C1CC1)c1ccc2[nH]nc(-c3ccc(N4CCN(C5COC5)CC4)cc3)c2c1 [Example A401, (S)-N-(cyclopropyl(pyridin-2-yl)methyl)-3-(4-(4-(oxetan-3-yl)piperazin-1-yl)phenyl)-1H-indazole-5-carboxamide] | < 100 | < 100 | < 100 |  | 
16 | CN1CCC(Oc2ccc(-c3n[nH]c4ccc(C(=O)NCC5(N6CCOCC6)CCCCCC5)cc34)cc2)CC1 [Example A429, 3-(4-((1-methylpiperidin-4-yl)oxy)phenyl)-N-((1-morpholinocycloheptyl)methyl)-1H-indazole-5-carboxamide] |  | < 100 |  | 100 to 500 | < 100

Next, values leading:

Row | GI50 ([1]; Homo sapiens, PA-1) [nM] | IC50 (human TTK) [nM] | GI50 [2] [nM] | GI50 [1, 3] [nM] | GI50 [2, 4] [nM] | Structure (SMILES)
17 | > 500 | < 100 | > 500 |  |  | O=C(NCC1(OC2CCCC2)CCCCC1)c1ccc2[nH]nc(-c3ccc(N4CCOCC4)cc3)c2c1 [Example A435, N-((1-(cyclopentyloxy)cyclohexyl)methyl)-3-(4-morpholinophenyl)-1H-indazole-5-carboxamide]
18 |  | < 100 |  | > 500 | > 500 | O=C(NC(c1ccccc1)C1CC1)c1ccc2[nH]nc(-c3ccc(OCCn4ccnc4)cc3)c2c1 (stereo not drawn) [Example A165, 3-(4-(2-(1H-imidazol-1-yl)ethoxy)phenyl)-N-(cyclopropyl(phenyl)methyl)-1H-indazole-5-carboxamide]
19 |  | < 100 |  | 100 to 500 | 100 to 500 | CN1CC[C@@H](Oc2ccc(-c3n[nH]c4ccc(C(=O)NCC5(N6CCOCC6)CCCCC5)cc34)cc2)C1 [Example A481, (R)-3-(4-((1-methylpyrrolidin-3-yl)oxy)phenyl)-N-((1-morpholinocyclohexyl)methyl)-1H-indazole-5-carboxamide]
20 |  | < 100 |  | 100 to 500 | 100 to 500 | O=C(NCC1(N2CCOCC2)CCCC1)c1ccc2[nH]nc(-c3ccc(O[C@@H]4CCC[C@H](O)C4)cc3)c2c1 (relative stereo) [Example A496, rel-3-(4-(((1R,3S)-3-hydroxycyclohexyl)oxy)phenyl)-N-((1-morpholinocyclopentyl)methyl)-1H-indazole-5-carboxamide]
21 | 100 to 500 | < 100 | 100 to 500 |  |  | O=C(NCC1(c2cccs2)CCOCC1)c1ccc2[nH]nc(-c3ccc(OC4CCN(C5COC5)CC4)cc3)c2c1 [Example A433, 3-(4-((1-(oxetan-3-yl)piperidin-4-yl)oxy)phenyl)-N-((4-(thiophen-2-yl)tetrahydro-2H-pyran-4-yl)methyl)-1H-indazole-5-carboxamide]
22 | < 100 | < 100 | 100 to 500 |  |  | O=C(NC(c1ccccn1)C1CCCC1)c1ccc2[nH]nc(-c3ccc(OC4CCN(C5COC5)CC4)cc3)c2c1 (stereo not drawn) [Example A319, N-(cyclopentyl(pyridin-2-yl)methyl)-3-(4-((1-(oxetan-3-yl)piperidin-4-yl)oxy)phenyl)-1H-indazole-5-carboxamide]
23 | < 100 | < 100 | < 100 |  |  | CC(C)C(NC(=O)c1ccc2[nH]nc(-c3ccc(OC4CCN(C5COC5)CC4)cc3)c2c1)c1ccccn1 (stereo not drawn) [Example A327, N-(2-methyl-1-(pyridin-2-yl)propyl)-3-(4-((1-(oxetan-3-yl)piperidin-4-yl)oxy)phenyl)-1H-indazole-5-carboxamide]
